ChEMBL document CHEMBL1125945, “Tripyl-convergent total synthesis of a homochiral benzoindane-fused prostacyclin analog” (Bioorg Med Chem Lett, 1991)

Species on record: Homo sapiens
Test: Compound was tested for inhibitory activity against collagen induced platelet aggregation
Type: functional

IC50: 2.5 µM
Structure (SMILES): O=C(O)COc1cccc2c1[C@H]1C[C@@H](O)[C@H](C#C[C@@H](O)C3CCCCC3)[C@H]1C2
